Assay [1] is described as follows: Total blood cholesterol level by enzyme method in the WHHL rabbit endothelial injury model. It is filed as in vivo, WHHL strain male rabbits. To be noted: WHHL rabbits, 4 weeks after endothelium injury, Means ± S.E., control 841±44. The source says:
(§1) As test animals were used a group of 4 homozygous hereditary hyperlipemic WHHL strain male rabbits of 2 months (available from Kitayama RABES K.K.) A balloon catheter for removing arterial embolus (Fogarty catheter, E-060-2F, available from Baxter Co., Inc.) was inserted into the right common carotid artery via the right external carotid artery of the rabbits under anesthesia with pentobarbital. The right common carotid artery was abraded three times with the balloon swollen (a balloon pressure of 0.5-1.0 atm) to produce a model for the injured vascular endothelium. The drug was administered for 4 weeks after the endothelium injury, and then the artery was excised and fixed with 10% neutral buffered formalin to prepare a slice of the arterial ring tissue. Elastic fiber-stained tissue preparations were prepared by Elastic Van Gieson (EVG) staining. Areas of the intima (I) and of the medium (M) were measured by means of an image analysis system (Adobe Photoshop, Unitimage for the Apple Macintosh) and a ratio of both values (I/M) was calculated to determine a level of intimal thickening. A total blood cholesterol level was measured according to an enzyme method (Autosera CHO-2, Daiichi Kagaku Yakuhin K.K.) using an autoanalyzer (Hitachi 7150 type).
(§2) The drug was given in admixture with a rabbit feed RC-4 (available from Oriental Kobo K.K.) at the concentrations of 0.0003% and of 0.003%, and then a dose was calculated from the amount of feed ingested and the body weight.

Assay [2] has as its system intimal thickening. Briefly: Inhibiting activity on intimal thickening in a model for vascular endothelial injury in WHHL rabbits (balloon catheter injury of right common carotid artery). It is filed as in vivo, WHHL strain male rabbits. To be noted: for Level of intimal thickening I/M: 4 weeks after endothelium injury, Means ± S.E., control 1.00±0.23.
Source text: as §1, §2

Assay [3] relates to intimal thickening. Briefly: Inhibiting activity on intimal thickening in a model for vascular endothelial injury in normal rabbits (balloon catheter injury of right common carotid artery). It is filed as in vivo, NZW strain male rabbits. The conditions noted are these: for Level of intimal thickening I/M: 1 week before and 2 weeks after endothelium injury, Means ± S.E., control 0.251±0.030. How it is done:
as §1, with “of 5 NZW” for “of 4 homozygous hereditary hyperlipemic WHHL”, “K.K.) After a drug was administered to rabbits for 1 week, a” for “K.K.) A”, “for 2” for “for 4”, “thickening.” for “thickening. A total blood cholesterol level was measured according to an enzyme method (Autosera CHO-2, Daiichi Kagaku Yakuhin K.K.) using an autoanalyzer (Hitachi 7150 type).”
The drug was given in admixture with a rabbit feed RC-4 (available from Oriental Kobo K.K.) at the concentration of 0.0003% and a dose was calculated from the amount of feed ingested and the body weight.

A further assay concerns smooth muscle cells. Briefly: Histopathological observation of the thickened intima after injury of the blood vessel. It is filed as in vivo. To be noted: histopathologically observed; model and dose not stated.

A word on the inhibition: it is the relative decrease from the control value, in per cent. As for `CC(C)(Sc1cc(C(C)(C)C)c(O)c(C(C)(C)C)c1)Sc1cc(C(C)(C)C)c(O)c(C(C)(C)C)c1` [Probucol, probucol, reference compound], the Total blood cholesterol in assay [1] (190 mg/kg (0.35% in feed)) was 723 ± 44 mg/dL. Besides, the “Level of intimal thickening I/M” value in the assay with intimal thickening [2] (190 mg/kg (0.35% in feed)) worked out at 0.43±0.08. For the same molecule, in the assay on intimal thickening [2] (Oryctolagus cuniculus, 190 mg/kg, from I/M ratio vs control group), the inhibition at 190 mg/kg stood at 57%.

For `CCCCCCCCCCCCCCSCC(=O)Nc1c(C(C)C)cccc1C(C)C` [Compound of the invention], the results for the “Level of intimal thickening I/M” value with intimal thickening [3] (0.2 mg/kg (0.0003% in feed)), in the assay with intimal thickening [2] (0.2 mg/kg (0.0003% in feed)) and in the assay with intimal thickening [2] (2.0 mg/kg (0.003% in feed)) were 0.126±0.028, 0.45±0.19 and 0.38±0.05, respectively. Besides, the inhibition at 0.2 mg/kg with intimal thickening [3] (Oryctolagus cuniculus, feed or water, 0.2 mg/kg (0.0003% in feed), from I/M ratio vs control group) was determined as 49.8%; in the assay with intimal thickening [2] (Oryctolagus cuniculus, 0.2 mg/kg, from I/M ratio vs control group), 55%. Further, the “number of smooth muscle cells during the proliferation period in the thickened intima” value with smooth muscle cells is “decrease the number of smooth muscle cells”. Moreover, the Total blood cholesterol was determined as 861 ± 83 mg/dL in assay [1] (0.2 mg/kg (0.0003% in feed)) and 907 ± 48 mg/dL in assay [1] (2.0 mg/kg (0.003% in feed)). In the assay on intimal thickening [2] (Oryctolagus cuniculus, 2.0 mg/kg, from I/M ratio vs control group), the inhibition at 2 mg/kg was determined as 62%.

With `COc1ccc(/C=C/C(=O)Nc2ccccc2C(=O)O)cc1OC` [Tranilast, tranilast, reference compound], in the assay with intimal thickening [3] (100 mg/kg (0.167% in feed)), the “Level of intimal thickening I/M” value is listed as 0.184±0.051. For the same molecule, in the assay on intimal thickening [3] (Oryctolagus cuniculus, feed or water, 100 mg/kg (0.167% in feed), from I/M ratio vs control group), the inhibition at 100 mg/kg stood at 26.6%.

(Values after patent publication EP0983763A1, “PREVENTIVES FOR RECONSTRICTION” (TAISHO PHARMACEUTICAL CO. LTD, priority 1997, dated 1998).)
